“Also recorded” adds a separate entry of the source.
Columns and labels:
Type in all cases: cell-based, human
APP^swe/swe neurons [1] = experiment: Western blotting for pTau(S202/T205) and total Tau, APP^swe/swe neurons
Excerpt: (§1) Western blotting. Samples for western blotting were harvested, pelleted and snap frozen. Cell pellets were resuspended in RIPA buffer supplemented with Halt protease and phosphatase inhibitors (ThermoFisher) followed by centrifugation to clarify the sample. Protein concentration was quantified using the Precision Red Advanced Protein Assay according to manufacturer's instructions and equal amounts of protein were mixed with NuPAGE LDS Sample Buffer and NuPAGE Sample Reducing Agent and heated to 72 degrees for 10 mins. A total of 5-20 μg of protein was separated on NuPAGE Novex 4-12% Bis Tris gels and transferred by wet blotting onto PVDF membranes. Membranes were blocked in 5% milk protein or 5% BSA when probing for the phospho-Tau. Primary antibodies used for this study were: β-ACTIN (Sigma, A2228-100UL), BAG1 (Santa Cruz, sc-33704), BAG3 (Abcam, ab47124), Cas9 (Cell Signaling Technologies; 14697S), GAPDH-HRP (Santa Cruz Biotech, sc-47724 HRP), LMNB1 (Abcam, ab16048), NAE1(Cell Signaling Technologies, 14321S), NEDD8 (Abcam, ab81264), p21 (Cell Signaling Technologies, 2947), TAU (Dako, A0024), p-TAU(S202/T205) (Thermo Fisher; MN1020), UBA3 (Abcam, ab124728). Band intensity was visualized using BioRad ChemiDoc XRS+molecular imager. After imaging the membrane was re-probed with either GAPDH or β-ACTIN antibodies for normalization. Band intensity was quantified using Fiji.

[2] = system: neurons with the PSEN^M146V/M146V mutation; experiment: Viability of neurons with the PSEN^M146V/M146V mutation; details: PSEN^M146V/M146V neurons (FIG. 25B)
[3] = system: H9-Nurr1^GFP neurons having the LRRK2 G2019S mutation; experiment: Viability of neurons with the LRRK2 G2019S mutation; details: LRRK2 G2019S neurons (FIG. 26C)
[4] = system: conjugation of NEDD8 to target proteins; experiment: Western blotting for conjugation of NEDD8 to target proteins in cortical neurons; details: 1 μM; postmitotic cortical neurons; 3 hours or 7 days of treatment
Excerpt: as §1

[5] = system: APP^swe/swe cortical neurons; experiment: pATM immunofluorescence (DNA damage); details: 1 μM for 7 days
Description: Immunocytochemistry. Cells were fixed in 4% paraformaldehyde for 10 mins then permeabilized in PBS+0.3% Triton. Cells were blocked in 5% donkey or goat serum for 1 h. Primary antibody incubation was performed overnight. Primary antibodies used in this study were: p-ATM (S1981) (Thermo Fisher; MA1-2020), Cas9 (Cell Signaling Technologies; 14697S), COL1A1 (R&D; AF6220), FOXG1 (Takara; M227), Ki67 (Dako; M7240), MAP2 (Thermo Fisher; PA1-16751), NANOG (Cell Signaling Technologies; 4903S), PAX6 (Biolegend; 901301), TAU (Thermo Fisher; MN1000), p-TAU (S235) (Thermo Fisher; PA5-104785). For all image quantifications images were taken from 3 individual wells and averaged. This was repeated three times with neurons from independent differentiations. Volocity was used to count MAP2+ and Ki67+ cells with pyknotic. DAPI^bright nuclei excluded from the cell count. FIJI was used for TAU and pATM quantifications.

wild-type neurons = experiment: Western blotting for pTau(S202/T205) and total Tau, wild-type neurons; details: wild-type neurons (FIG. 23C)
Excerpt: as §1

[6] = system: wild-type or APP^swe/swe neurons; experiment: Flow cytometry for aging hallmarks (proteostasis, heterochromatin, senescence)
Description: Flow Cytometry. Neuronal cultures were dissociated to single cell suspensions using Accutase (Innovative Cell Technologies) supplemented with Neuron Isolation Enzyme for Pierce™ (Thermo 88285) solution at 1:50. Single cell suspensions were stained with Zombie UV™ Fixable Viability Kit (Biolegend 423107) at 1:2500 in PBS for 15 minutes at room temperature, followed by fixation in 4% Paraformaldehyde for 10 minutes (4° C.). Cells stained with CellEvent Senescence Green (Thermo C10840) were done so at 1:250 in assay buffer for 2 hours at 37° C. For intracellular probes, cells were permeabilized in 0.5% triton-x for 10 minutes (4° C.), and blocked in 5% BSA for 10 minutes (4° C.). Cells were stained with H3k9me3-PE antibody (Cell Signaling Technologies #13969S) diluted 1:200, and Proteostat (Enzo Life Sciences ENZ-51023-KP050) diluted 1:2500, in 5% BSA in PBS for 30 minutes at 4° C. Cells were analyzed on the Cytek Aurora Flow Cytometer. Experiments were repeated with cells from 3 independent differentiations.

APP^swe/swe neurons [7] = experiment: Western blotting for p21, LMNB1, BAG1 and BAG3; details: 1 μM from DIV50-DIV60
Excerpt: as §1

AD neurons = experiment: Nuclear roundness and nuclear area of AD neurons
APP^swe/swe neurons [8] = experiment: Senescence associated β-gal, brightfield images; details: 1 μM for 10 days

SMILES: NS(=O)(=O)OC[C@@H]1C[C@@H](n2ccc3c(N[C@H]4CCc5ccccc54)ncnc32)C[C@@H]1O [MLN4924, [(1S,2S,4R)-4-[4-[[(1S)-2,3-Dihydro-1H-inden-1-yl]amino]-7H-pyrrolo[2,3-d]pyrimidin-7-yl]-2-hydroxycyclopentyl]methyl sulfamic acid ester]
- changes in phosphorylated Tau (APP^swe/swe neurons [1]; 1 μM from DIV50-DIV60, App^swe/swe versus wild-type neurons (FIGS. 4C-4F)): AD-specific changes in phosphorylated Tau
- high molecular weight form of pTAU(AT8) (APP^swe/swe neurons [1]; AD neurons (FIG. 23A-23B)): increase in the high molecular weight form
- major form of pTAU(AT8) (APP^swe/swe neurons [1]; AD neurons (FIG. 23A-23B)): decrease in major form of pTAU(AT8)
- viability [2]: reduced viability
- viability [3]: reduced viability
- conjugation of NEDD8 to target proteins [4]: effectively block the conjugation of NEDD8 to target proteins; also recorded: blocks conjugation of NEDD8 to target proteins
- pATM induction (DNA damage) [5]: pATM induction
- change in pTAU(AT8) forms (wild-type neurons): did not show the change
- cellular hallmarks of age ([6]; 1 μM for 7 or 10 days, AD-PSC (APP^swe/swe) cortical neurons (FIGS. 3A-3E)): induces cellular hallmarks of age
- cellular age (protein aggregation, senescence, histone methylation) ([6]; wild-type or APP^swe/swe neurons, versus DMSO (FIG. 27)): induces cellular age in both wild-type and disease backgrounds
- cellular senescence (p21, LAMNB1 Western blotting) (APP^swe/swe neurons [7]): increased cellular senescence
- proteostasis (BAG1, BAG3 Western blotting) (APP^swe/swe neurons [7]): loss of proteostasis
- nuclear roundness (nuclear lamina defects) (AD neurons; AD neurons (FIG. 28A)): decreased nuclear roundness
- nuclear area (cellular senescence) (AD neurons; AD neurons (FIG. 28B)): increased nuclear area
- β-gal positive neurons (senescence) (APP^swe/swe neurons [8]): induction of showing β-gal positive

From US20250085272A1, “METHODS AND SYSTEMS FOR MODULATING AND MODELING AGING AND NEURODEGENERATION DISEASES” (MEMORIAL SLOAN-KETTERING CANCER CENTER, priority 2022, published 2025)
